# Article PMC9453454, “Design, synthesis, and anticancer activity of three novel palbociclib derivatives” (Frontiers in Oncology, 2022)
# Read-outs that look alike come from different tables or passages of the source.
# Tests used:
# HepG2 cells = assay: MTT in vitro cytotoxicity, HepG2; format: cell-based, human
# Experimental: (§1) Human lung cancer cells (NCI-H460, NCI-H1299, and A549), human breast cancer cells (MDA-MB-231, MDA-MB-453, and MCF-7), human liver cancer cells (Huh-7 and HepG2), human colon cancer cells (coca-2, HT-29, and HCT116), human cervical cancer cells (HeLa), human normal lung cells (BEAS-2B), and human normal […] (MCF-10) were from the State Key Laboratory of Pharmaceutical Biotechnology, Nanjing University. NCI-H460 were cultured in 1640 medium containing 10% fetal bovine serum (FBS). MDA-MB-231 were cultured in L15 medium containing 10% FBS without CO2, and other cell lines were cultured in DMEM medium containing 10% FBS CO2 in the incubator.
# (§2) MTT assay was used to identify 14 different cell lines (human lung cancer cells NCI-H460, NCI-H1299, and A549; human breast cancer cells MDA-MB-231, MDA-MB-453, and MCF-7; human liver cancer cells Huh-7 and HepG2; human colon cancer cells coca-2, HT-29, and HCT116; and human cervical cancer cells HeLa) and 2 kinds of normal cell lines (human normal lung epithelial cells BEAS-2B, human normal breast epithelial cells MCF10-A) for quantitative analysis ([15]). In addition, 10-HCPT and palbociclib were used as positive control.
# (§3) Cells were harvested during the logarithmic growth phase and seeded into 96-well plates at a density of 2.0×10^3 cells/well. After being incubated for 24 h, the cells were treated with different concentrations of various culture programs for 48 h. Afterwards, 20 μl of MTT solution (5 mg/ml) was added to each well, and the cells were incubated in a 5% CO2 atmosphere at 37°C for another 4 h. Then, the supernatant was discarded, and the formazan crystals were dissolved in 150 μl DMSO. Subsequently, the absorbance was measured at 570 nm via a Tecan microplate reader. The concentration that caused 50% inhibition of cell viability (IC50) values was calculated by GraphPad Software. Triplicate experiments were performed in parallel for each concentration, and the results are shown as the mean ± SD. The inhibitory ratio was calculated using the following formula: inhibitory ratio (%) = [1−(mean absorbance of experiment group)/(mean absorbance of control group)] × 100.
# Huh-7 cells = assay: MTT in vitro cytotoxicity, Huh-7; format: cell-based, human
# Experimental: as §1, §2, §3
# MDA-MB-453 cells = assay: MTT in vitro cytotoxicity, MDA-MB-453; format: cell-based, human
# Experimental: as §1, §2, §3
# NCI-H1299 cells = assay: MTT in vitro cytotoxicity, NCI-H1299; format: cell-based, human
# Experimental: as §1, §2, §3
# MCF-7 cells = assay: MTT in vitro cytotoxicity, MCF-7; format: cell-based, human
# Experimental: as §1, §2, §3
# MDA-MB-231 cells = assay: MTT in vitro cytotoxicity, MDA-MB-231; format: cell-based, human
# Experimental: as §1, §2, §3
# Hela cells = assay: MTT in vitro cytotoxicity, Hela; format: cell-based, human; details: 48 h
# Experimental: as §1, §2, §3
# Coca-2 cells = assay: MTT in vitro cytotoxicity, Coca-2; format: cell-based, human; details: 48 h
# Experimental: as §1, §2, §3
# HCT116 cells = assay: MTT in vitro cytotoxicity, HCT116; format: cell-based, human
# Experimental: as §1, §2, §3
# A549 cells = assay: MTT in vitro cytotoxicity, A549; format: cell-based, human
# Experimental: as §1, §2, §3
# HT-29 cells = assay: MTT in vitro cytotoxicity, HT-29; format: cell-based, human
# Experimental: as §1, §2, §3
# BEAS-2B cells = assay: MTT in vitro cytotoxicity, BEAS-2B normal lung epithelial cells; format: cell-based, human; details: 48 h
# Experimental: as §1, §2, §3
# MCF10-A cells = assay: MTT in vitro cytotoxicity, MCF10-A normal breast epithelial cells; format: cell-based, human; details: MCF-10A, 48 h
# Experimental: as §1, §2, §3
# NCI-H460 cells = assay: MTT in vitro cytotoxicity, NCI-H460; format: cell-based, human
# Experimental: as §1, §2, §3
structure (smiles),measurement,setting,value
"CC[C@@]1(O)C(=O)OCc2c1cc1n(c2=O)Cc2cc3cc(O)ccc3nc2-1 [10-HCPT, 10-hydroxycamptothecin, reference compound]",IC50,"HepG2 cells; Homo sapiens, HepG2, 48 h",2.45 ± 0.27 µM
same,IC50,"Huh-7 cells; Homo sapiens, Huh-7, 48 h",7.69 ± 0.84 µM
same,IC50,"MDA-MB-453 cells; Homo sapiens, MDA-MB-453, 48 h",5.73 ± 0.62 µM
same,IC50,"NCI-H1299 cells; Homo sapiens, NCI-H1299, 48 h",3.39 ± 0.16 µM
same,IC50,"MCF-7 cells; Homo sapiens, MCF7, 48 h",13.2 ± 0.31 µM
same,IC50,"MDA-MB-231 cells; Homo sapiens, MDA-MB-231, 48 h",15.5 ± 1.07 µM
same,IC50,"Hela cells; Homo sapiens, HeLa",6.54 ± 0.07 µM
same,IC50,Coca-2 cells; Homo sapiens,13.4 ± 0.34 µM
same,IC50,"HCT116 cells; Homo sapiens, HCT-116, 48 h",10.4 ± 0.7 µM
same,IC50,"A549 cells; Homo sapiens, A549, 48 h",4.14 ± 0.03 µM
same,IC50,"HT-29 cells; Homo sapiens, HT-29, 48 h",4.61 ± 0.19 µM
same,IC50,"BEAS-2B cells; Homo sapiens, BEAS-2B",7.05 ± 0.52 µM
same,IC50,MCF10-A cells; Homo sapiens,20.3 ± 0.59 µM
same,IC50,"NCI-H460 cells; Homo sapiens, NCI-H460, 48 h",1.96 ± 0.01 µM
"CC[C@]1(O)C(=O)OCc2c1cc1n(c2=O)Cc2cc3cc(OC(=O)/C=C/C(=O)N4CCN(c5ccc(Nc6ncc7c(C)c(C(C)=O)c(=O)n(C8CCCC8)c7n6)nc5)CC4)ccc3nc2-1 [HP-3, (R)-4-ethyl-4-hydroxy-3,14-dioxo-3,4,12,14-tetrahydro-1H-pyrano[3’,4’:6,7] indolizino[1,2-b]quinolin-9-yl(E)-4-(4-(6-((6-acetyl-8-cyclopentyl-5-methyl-7-oxo-7,8-dihydropyrido[2,3-d]pyrimidin-2-yl)amino)pyridin-3-yl)piperazin-1-yl)-4-oxobut-2-enoate]",IC50,"HepG2 cells; HepG2 human liver cancer cells, MTT, 48 h, read-out: IC50",6.84 ± 0.91 µM
same,IC50,"Huh-7 cells; Huh-7 human liver cancer cells, MTT, 48 h, read-out: IC50",33.7 ± 1.03 µM
same,IC50,"MDA-MB-453 cells; MDA-MB-453 human breast cancer cells, MTT, 48 h, read-out: IC50",8.31 ± 0.52 µM
same,IC50,"NCI-H1299 cells; NCI-H1299 human lung cancer cells, MTT, 48 h, read-out: IC50",4.35 ± 0.13 µM
same,melting point,,45.7 to 47.3 °C
same,IC50,"MCF-7 cells; MCF7, MCF-7 human breast cancer cells, MTT, 48 h, read-out: IC50",21.4 ± 1.27 µM
same,IC50,"MDA-MB-231 cells; MDA-MB-231 human breast cancer cells, MTT, 48 h, read-out: IC50",27.3 ± 1.43 µM
same,IC50,"Hela cells; Hela human cervical cancer cells, MTT, read-out: IC50",14.9 ± 0.73 µM
same,IC50,"Coca-2 cells; Coca-2 human colon cancer cells, MTT, read-out: IC50",17.1 ± 0.28 µM
same,IC50,"HCT116 cells; HCT-116, HCT116 human colon cancer cells, MTT, 48 h, read-out: IC50",23.2 ± 0.49 µM
same,IC50,"A549 cells; A549 human lung cancer cells, MTT, 48 h, read-out: IC50",5.52 ± 0.11 µM
same,IC50,"HT-29 cells; HT-29 human colon cancer cells, MTT, 48 h, read-out: IC50",15.4 ± 0.42 µM
same,IC50,"BEAS-2B cells; BEAS-2B human normal lung epithelial cells, MTT, read-out: IC50",39.98 ± 0.16 µM
same,IC50,"MCF10-A cells; MCF10-A human normal breast epithelial cells, MTT, read-out: IC50",37.3 ± 1.66 µM
same,IC50,"NCI-H460 cells; NCI-H460 human lung cancer cells, MTT, 48 h, read-out: IC50",2.08 ± 0.25 µM
